Measurements from patent US20190134039A1, “ANTIVIRAL JAK INHIBITORS USEFUL IN TREATING OR PREVENTING RETROVIRAL AND OTHER VIRAL INFECTIONS” (EMORY UNIVERSITY, priority 2011, published 2019).
Like-named read-outs stand apart in the source and are kept apart here.

Legend:
PHA + IL-2 PBM cells = assay: cells; settings: Homo sapiens, PBMC, read-out: IC50 in PHA + IL-2 PBM cells *MTT Assay
[1] = tested on: acute infection in rhesus macaque lymphocytes; assay: cells; settings: Macaca mulatta, Lymphocyte
Source text: (§1) The data (Shown in Table 5 below) are mean and standard deviations from at least three independent experiments.

[2] = tested on: acute infection in rhesus macaque macrophages; assay: cells; settings: for EC90: read-out: Acute infection in rhesus macaque macrophages EC90
Source text: as §1

HIV-1 containing L74V = assay: microbe, parasite or virus in culture; type: cell-based
[3] = tested on: HIV-1 containing 4xAZT (D67N/K70R/T215Y/K219Q); assay: microbe, parasite or virus in culture; type: cell-based
latent HIV-1 = assay: Reactivation of latent HIV-1, primary central memory-based T cell latency model; settings: concentrations found during steady-state or Cmax in vivo
[4] = tested on: PHA stimulated primary human lymphocytes; assay: Proliferation and viability of PHA stimulated primary human lymphocytes; type: cell-based; settings: 5 days, all concentrations
Method: The effect of various Jak inhibitors on proliferation and viability of PHA or PHA+IL-2 stimulated primary human lymphocytes was evaluated using the techniques described above.
For all experiments, cells were incubated with media alone or drug-containing medium for 5 days prior to assessment of cell count and viability. Data are mean and standard deviations for at least three independent experiments conducted with at least 4 pooled donors, and duplicates within each experiment.

pSTAT5 = assay: cells
[5] = Human immunodeficiency virus 1, Lymphocyte

Compound `N#CC[C@H](C1CCCC1)n1cc(-c2ncnc3[nH]ccc23)cn1` [Jakafi, Ruxolitinib] has a CC50 (PHA + IL-2 PBM cells) of 3.1 ± 1.7 µM, an EC50 ([1]; read-out: Acute infection in rhesus macaque lymphocytes EC50) of 90 ± 100 nM and an EC90 ([1]; read-out: Acute infection in rhesus macaque lymphocytes EC90) of 1300 ± 800 nM. The EC50 ([2]; Macaca mulatta, Macrophage, read-out: Acute infection in rhesus macaque macrophages EC50) was about 400 nM, the EC90 ([2]; Macaca mulatta, Macrophage) was about 4 µM and the EC90 [2] was 4.2 ± 1.3 µM. For the same compound, the EC50 (HIV-1 containing L74V; [5]) was 100 ± 200 nM, the EC90 (HIV-1 containing L74V; [5]) was 3.2 ± 2.6 µM and the “FI50 (ratio of EC50 against mutant virus:EC50 against wild-type xxLAI)” value (HIV-1 containing L74V; L74V) was 0.5. The “FI90 (ratio of EC90 against mutant virus:EC90 against wild-type xxLAI)” value (HIV-1 containing L74V; L74V) was 0.5, the “FI50 (ratio of EC50 against mutant virus:EC50 against wild-type xxLAI)” value ([3]; 4xAZT (D67N/K70R/T215Y/K219Q)) was 0.3 and the “FI90 (ratio of EC90 against mutant virus:EC90 against wild-type xxLAI)” value ([3]; 4xAZT (D67N/K70R/T215Y/K219Q)) was 0.4. The EC50 [3, 5] was 90 ± 100 nM, the EC90 [3, 5] was 2400 ± 2000 nM and the “inhibition of reactivation of latent HIV-1” value (latent HIV-1) was at least 50%. The “proliferation versus cells exposed to media alone” value [4] was “not significantly different”, the “viability versus cells exposed to media alone” value [4] was “not significantly different” and the EC50 (pSTAT5; read-out: EC50 pSTAT5) was under 10 nM. It also gave an EC90 (pSTAT5; read-out: EC90 pSTAT5) of under 10 nM.
